Experimental data reported in paper PMC9108603, “Microbial Metabolite Inspired β‐Peptide Polymers Displaying Potent and Selective Antifungal Activity” (Advanced Science, 2022).

Experiments:
[1] = test system: A. Baumannii ATCC 747; experiment: Antibacterial MIC test; format: cell-based; details: 1.0 × 10^5 CFU/mL in MH medium
Description: (§1) aforementioned antifungal assay. Gram-positive bacteria ( S. aureus ATCC 6538, S.

[2] = test system: B. subtilis BR151; experiment: Antibacterial MIC test; format: cell-based; details: 1.0 × 10^5 CFU/mL in MH medium
Description: as §1

[3] = test system: E. coli ATCC 25922; experiment: Antibacterial MIC test; format: cell-based; details: 1.0 × 10^5 CFU/mL in MH medium
Description: as §1

[4] = test system: K. pneumoniae ATCC 700603; experiment: Antibacterial MIC test; format: cell-based; details: 1.0 × 10^5 CFU/mL in MH medium
Description: as §1

[5] = test system: S. aureus ATCC 6538; experiment: Antibacterial MIC test; format: cell-based; details: 1.0 × 10^5 CFU/mL in MH medium
Description: as §1

[6] = test system: S. epidermidis ATCC 49134; experiment: Antibacterial MIC test; format: cell-based; details: 1.0 × 10^5 CFU/mL in MH medium
Description: as §1

[7] = test system: C. albicans (K1 strain); experiment: Intracellular ROS detection (DCFH fluorescence); format: cell-based, Candida albicans; details: DCF fluorescence, positive control 40 mM H2O2; rises with time and PDAP20 concentration
Method: Energy depletion analysis. For energy depletion experiments, cell suspension of C. albicans (K1 strain) at 3.0 × 10^6 CFU/mL was pretreated with RPMI containing 5 mM NaN 3 for 1 h. For antifungal efficiency assay, a fresh cell suspension pretreated or non-pretreated with NaN 3 were incubated with 50 μg/mL PDAP 20 or without an antifungal agent (as energy depletion control) for 24 h. The fresh cell suspension without antifungal agents before and after incubation with NaN 3 for 24 h were used as the controls, respectively. The suspensions were diluted and plated on YPD agar. The plates were incubated at 30 °C for 24 h and colony amounts were counted. The cell viability after incubation at 4 °C with 50 μg/mL PDAP 20 or without an antifungal agent (as positive control) was measured using the same method. […]
For flow cytometry experiment, a fresh cell suspension pretreated or non-pretreated with NaN 3 was incubated with 50 μg/mL CPM-PDAP 20 for 1 h and 2 h, respectively. Fungal cells were washed by PBS to remove polymers, and 5.0 × 10^4 cells were counted and anaysized. The polymer uptake was calculated by flow cytometry (Backman). Furthermore, cell suspensions were incubated with 10 μg/mL PI for 10 min for calculated PI uptake. […]
(§2) DNA fragmentation assay. Apoptosis induced DNA fragments in C. albicans cells were analyzed using the TdT-mediated dUTP Nick-End Labeling (TUNEL) method. […]

[8] = test system: mature C. albicans biofilms; experiment: Eradication of mature biofilm (MTT); format: cell-based, Candida albicans; details: 48 h biofilm, then 48 h treatment at 37 °C
[9] = test system: C. albicans (K1 strain); experiment: Mitochondrial membrane potential (JC-1); format: cell-based, Candida albicans; details: 50 μg/mL PDAP20, 2 h, 3.0 × 10^6 CFU/mL; green = early stage of apoptosis
Method: NAC concentration without affecting the normal cell growth. Wells containing cells in RPMI and 40 mM H 2O2 was used as positive controls. Cell suspension of C. albicans (K1 strain) at 6.0 × 10^6 CFU/mL was treated with 20 μM 2,7-dichlorodi-hydrofluorescein diacetate (DCFHDA) for 20 min. Then 50 µL of the cell suspension was added to each well, except the blank control (RMPI containing DCFHDA without cells). The fluorescence intensity of the induced ROS production was measured every 30 min using a plate reader at λ ex = 485 nm and λem = 530 nm. The confocal observation of ROS production was conducted after C. albicans (K1 strain) suspension at 3.0 × 10^6 CFU/mL was incubated with 50 μg/mL CPM-PDAP 20 for 2 h. […]
Detection of mitochondrial membrane potential. Changes in mitochondrial membrane potential in C. albicans after incubation with PDAP 20 were analyzed using JC-1 as previously described. Mitochondrial membrane potential was detected with the fluorescent dye JC-1, which exists as aggregates (red) in normal cells with polarized mitochondria, whereas exists as monomers (green) in apoptotic cells with depolarized mitochondria. […]
as §2

Substance: poly(DL‐diaminopropionic acid) [PDAP20]
- MIC A. baumannii [1]: > 200 µg/mL
- MIC B. subtilis [2]: 50 µg/mL
- MIC E. coli [3]: 200 µg/mL
- MIC K. pneumoniae [4]: > 200 µg/mL
- MIC S. aureus [5]: > 200 µg/mL
- MIC S. epidermidis [6]: 200 µg/mL
- Intracellular ROS level [7]: higher than that of the hydrogen peroxide‐treated fungal cells
- Concentration that eradicates mature biofilms (SMIC80) [8]: 50 µg/mL
- Mitochondrial membrane potential, JC‐1 stain [9]: cytosol green fluorescence
